Source: patent US9936701B2, “Herbicidal compounds” (Syngenta Participations AG, priority 2013, dated 2018)

Tests used:
[1] = system: a variety of test species; assay: Pre-emergence herbicidal activity (glasshouse, sprayed one day after sowing, evaluated after 13 days); format: in vivo; set-up: key: 5=total damage to plant; 0=no damage to plant; settings: application pre-emergence, rate 1000 g/Ha, scale 0-5
How it was run: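 Pre-emergence spray, one day post-sowing; vehicle acetone/water (50:50) + 0.5% Tween 20, aqueous dilution. Glasshouse 24/16 °C, 14 h light, 65% RH, watering twice daily. Score at 13 d on 0–5 scale, 5 = total damage.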

[2] = system: a variety of test species; assay: Post-emergence herbicidal activity (glasshouse, sprayed after 8 days cultivation, evaluated after 13 days); format: in vivo; set-up: key: 5=total damage to plant; 0=no damage to plant; settings: rate 1000 g/Ha, scale 0-5
How it was run: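 Visual herbicidal injury (0 = no damage, 5 = plant killed) recorded 13 days post-treatment. Treatment consisted of a single spray onto emerged seedlings at day 8; conditions before and after were 24/16 °C, 14 h light, 65% humidity.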

Row | SMILES | Pre-emergence herbicidal damage score, ABUTH [1] | Pre-emergence herbicidal damage score, ALOMY [1] | Pre-emergence herbicidal damage score, AMARE [1] | Pre-emergence herbicidal damage score, ECHCG [1] | Pre-emergence herbicidal damage score, SETFA [1] | Pre-emergence herbicidal damage score, ZEAMX [1] | ABUTH (Abutilon theophrasti) damage score, application post-emergence [2] | ALOMY (Alopecurus myosuroides) damage score, application post-emergence [2] | AMARE (Amaranthus retroflexus) damage score, application post-emergence [2] | ECHCG (Echinochloa crus-galli) damage score, application post-emergence [2] | SETFA (Setaria faberi) damage score, application post-emergence [2] | ZEAMX (Zea mays) damage score, application post-emergence [2]
1 | CCC(=O)OC1C(C)=C(Cl)C(=O)N1c1cc(C(C)(CC)CC#N)on1 (centres unmarked) [A99] | 5 | 4 | 5 | 5 | 5 | 3 | 5 | 5 | 5 | 5 | 5 | 5
2 | CC1=C(Cl)C(=O)N(c2noc(C(C)(C)C)c2C#N)C1 [A102] | 5 | 4 | 5 | 4 | 5 | 3 | 5 | 5 | 5 | 5 | 5 | 4
3 | COC1=C(Cl)C(=O)N(c2cc(C(C)(C)C)on2)C1O (centres unmarked) [B1] | 5 | 4 | 5 | 5 | 3 | 4 | 5 | 5 | 5 | 5 | 5 | 5
4 | CNC1=C(Cl)C(=O)N(c2cc(C(C)(C)C)on2)C1O (centres unmarked) [C1] | 3 | 2 | 5 | 4 | 4 | 1 | 5 | 4 | 5 | 5 | 4 | 1
5 | CN(C)C1=C(Cl)C(=O)N(c2cc(C(C)(C)C)on2)C1O (centres unmarked) [C2] | 1 | 1 |  | 2 | 1 | 1 | 5 | 4 | 5 | 5 | 4 | 3
6 | C=C(C)CNC1=C(Cl)C(=O)N(c2cc(C(C)(C)C)on2)C1O (centres unmarked) [C3] | 5 | 3 | 5 | 4 | 3 | 2 | 5 | 4 | 5 | 5 | 5 | 2
7 | CC(C)(C)c1cc(N2C(=O)C(Cl)=C(NCC3CC3)C2O)no1 (centres unmarked) [C4] | 5 | 2 | 5 | 5 | 4 | 3 | 5 | 5 | 5 | 5 | 5 | 4
8 | C#CCNC1=C(Cl)C(=O)N(c2cc(C(C)(C)C)on2)C1O (centres unmarked) [C5, 1-(5-tert-butylisoxazol-3-yl)-4-chloro-2-hydroxy-3-(prop-2-ynylamino)-2H-pyrrol-5-one] | 5 | 3 | 5 | 5 | 4 | 3 | 5 | 5 | 5 | 5 | 5 | 5
9 | CC(C)(C)c1cc(N2C(=O)C(Cl)=C(N)C2O)no1 (centres unmarked) [C6, 3-amino-1-(5-tert-butylisoxazol-3-yl)-4-chloro-2-hydroxy-2H-pyrrol-5-one] | 5 | 4 | 5 | 5 | 4 | 4 | 3 | 5 | 5 | 5 | 5 | 5
10 | CC(C)(C)c1cc(N2C(=O)C(Cl)=C(NC3CCC3)C2O)no1 (centres unmarked) [C9] | 0 | 0 | 3 | 0 | 0 | 0 | 0 | 0 | 2 | 0 | 0 | 0
11 | CC(C)(C)CNC1=C(Cl)C(=O)N(c2cc(C(C)(C)C)on2)C1O (centres unmarked) [C10] | 0 | 0 | 2 | 0 | 0 | 0 | 0 | 0 | 0 | 0 | 0 | 0
12 | COCCNC1=C(Cl)C(=O)N(c2cc(C(C)(C)C)on2)C1O (centres unmarked) [C11] | 4 | 3 | 5 | 4 | 4 | 2 | 5 | 4 | 5 | 5 | 5 | 1
13 | CCOCCNC1=C(Cl)C(=O)N(c2cc(C(C)(C)C)on2)C1O (centres unmarked) [C12] | 4 | 1 | 4 | 2 | 3 | 0 | 5 | 3 | 4 | 4 | 4 | 0
14 | CC(=O)OC1C(N)=C(Cl)C(=O)N1c1cc(C(C)(C)C)on1 (centres unmarked) [C13] | 5 | 4 | 5 | 5 | 4 | 4 | 5 | 5 | 5 | 5 | 5 | 5
